Assay results from ChEMBL document CHEMBL3507680, “University of Dundee, Gates Library screen for HepG2 cell viability”.

Experiment: Human HepG2 cell viability assay in 384 well format
Format: toxicity, cell-based
Parameters: dose 125 nL, time 70.5 hour; concentration not given beside the values
Conditions: HepG2 cells, read-out: Inhibition

Row | SMILES | cytotoxicity at 70.5 h [%]
1 | CCc1ccc(CN2CCNC(C(=O)N3CCN(C)CC3)C2)nc1 (configuration not stated) | -0.217
2 | CCOCC(O)CN1CCN(C(=O)c2cc(Cl)ccc2F)CC1 (configuration not stated) | 2.85
3 | CC(C)c1noc(CN2CCC(c3nc4cc(Cl)ccc4o3)CC2)n1 | -19.1
4 | COc1ccc(-c2nnc(C(C)N3CCOCC3)o2)cc1 (configuration not stated) | -2.92
5 | Cc1ccccc1C(C(=O)NCCSC(F)(F)F)N(C)C (configuration not stated) | -11.1
6 | CC(C)Nc1ccc2nc(C3CCNCC3)nn2c1 | 9.18
7 | N#CCCN(CCC#N)C(=O)c1ccc(COc2ccccc2C#N)o1 | 6.22
8 | CCC(CO)N(CC=C(C)C)Cc1ccsc1 (configuration not stated) | -2.49
9 | O=C(NCC1Cn2nnc(-c3cccc(F)c3)c2CO1)c1ccc[nH]1 (configuration not stated) | 4.99
10 | CCn1cc(-c2nccnc2C2CCCN(C(C)=O)C2)cn1 (configuration not stated) | -4.58
11 | CC(C)c1noc(-c2ccc(NCc3noc(C(C)C)n3)nc2)n1 | -5.44
12 | O=S(=O)(CCN1CCOC(Cn2cncn2)C1)c1ccccc1 (configuration not stated) | -17.9
13 | CCc1c(C(=O)N2CCCN(C(C)=O)CC2)cnn1C(C)(C)C | -0.109
14 | CN(CC(=O)N1CCCC1)C(=O)c1ccccc1F | -13.9
15 | CCc1noc(CN(C)C(=O)C(C)(C)Oc2cccc(Cl)c2)n1 | 7.49
16 | COCC(=O)N1CCCn2c(CN3CCCCC3)nnc2C1 | -7.69
17 | CC(Cn1cccn1)NC(=O)Cc1cccs1 (configuration not stated) | -6.09
18 | Cc1noc(C)c1CN1CCCC1c1nnc2ccccn12 (configuration not stated) | -23.7
19 | COCc1nc2nc(O)c3c(n2n1)NC(=O)CC3c1ccc(SC)cc1 (configuration not stated) | 1.29
20 | CNC(=O)[C@H]1C[C@@H]2CN(C(=O)Nc3ccc(F)cc3)C[C@H]1O2 | -0.584
21 | N#Cc1ccc(C(=O)N2C[C@H](OCc3cccnc3)[C@H]3COC[C@H]32)cc1 | 3.47

Row | SMILES | cytotoxicity at 70.5 h [%]
22 | NCc1n[nH]c(=O)n1-c1ccccc1Oc1ccccc1 | 9.56
23 | N#Cc1ccc(N2CCCN(CC(N)=O)CC2)cc1 | -9.42
24 | CNC(=O)CN1C(=O)CCC12CCCN(CCc1ccccc1)C2 (configuration not stated) | 27.8
25 | CN1CCO[C@@H]2CN(C(=O)Cc3cccs3)CC[C@@H]2C1 | -2.05
26 | CN(CC1CC1)c1ccc2ccc(C(=O)NCCN3CCOCC3)cn12 | -5.52
27 | CCOCCCNC(=O)c1cc(Br)c2c(c1)OCCO2 | -8.79
28 | CC1(C)Cc2ccc(C(=O)NC3CCS(=O)(=O)C3)c(O)c2O1 (configuration not stated) | 12.1
29 | COc1cc(N(C)Cc2cccc(-n3cccn3)c2)nc(N)n1 | -1.55
30 | CCc1nnc(Nc2cccc(C3CCN(CC4CC4)CC3)n2)s1 | -7.67
31 | CCC(C)NC(=O)c1cc(Br)c2c(c1)OCCO2 (configuration not stated) | -1.67
32 | O=S(=O)(c1cncc(F)c1)N1CCSC2(CCCCC2)C1 | -10.2
33 | CSc1ccc(CNC(=O)NCC(O)c2cccc(F)c2)cc1 (configuration not stated) | -7.86
34 | CCCc1nnc(SCc2cc(=O)n3c4c(sc3n2)CCCC4)[nH]1 | -6.9
35 | COCCC(=O)N1CCCC(c2noc3nc(C)cc(C(F)(F)F)c23)C1 (configuration not stated) | -5.21
36 | CNC(=O)C1CN(Cc2ccc(C#N)cc2F)c2ccccc2O1 (configuration not stated) | 1
37 | CNC(=O)C1Cn2ccnc2C2(CCN(Cc3ccncc3)CC2)O1 (configuration not stated) | -10.9
38 | Cc1nc2n(n1)CC(NCC(=O)NCCC1=CCCCC1)CC2 (configuration not stated) | 0.305
39 | COCCn1cnnc1CCNc1cc(C)nc2ccnn12 | -2.09
40 | CCC1=N[C@@]2(CC[C@@H]3CN(C(=O)NCc4ccccc4)C[C@@H]32)C(=O)N1C | 26.3
41 | Cc1cc(C(=O)N2C[C@@H](C(=O)O)[C@H](C(C)C)C2)cs1 | -2.46
42 | CCOc1ccc(C(=O)NCc2ccnc(N3CCCC3)c2)cn1 | -6.13

Row | SMILES | cytotoxicity at 70.5 h [%]
43 | COC(=O)CC(C1=Cc2ccccc2OC1)c1oc(C)cc(=O)c1O (configuration not stated) | 19.3
44 | CCc1ccsc1C(=O)NC(Cc1ccccc1)C(N)=O (configuration not stated) | -6.72
45 | COCCN1CCC(CNC(=O)C2(c3ccc(F)cc3)CCC2)CC1 | -0.878
46 | Cc1cc(C(=O)N2CCC(NC(=O)c3cccnc3)CC2)c(C)o1 | -9.02
47 | COCC(C)NC(=O)CCCn1cnc2ccccc2c1=O (configuration not stated) | -5.09
48 | O=C(CCN1C(=O)CC2(CCCC2)C1=O)NCCc1nccs1 | -22.6
49 | COc1c(F)cccc1C(=O)NC(C)c1cnn(C)c1 (configuration not stated) | -8.49
50 | COC(=O)c1ccc(OC)c(Cn2cc(N)cn2)c1 | -19.2
51 | CCN1CCN(C[C@@H]2CN(c3ncccc3C(F)(F)F)C[C@@H]2CO)CC1 | -5.49
52 | Cc1oc(-c2ccc(F)cc2)nc1CN1CCOCS1(=O)=O | -12.2
53 | Cc1nn(C)c(Oc2ccccc2)c1CNC1CCOc2ccccc21 (configuration not stated) | -1.6
54 | Cc1csc(N(C)C(=O)C(c2c(F)cccc2Cl)N(C)C)n1 (configuration not stated) | -0.598
55 | Cc1cc(C)c(CNC(=O)CCC2CCCO2)c(=O)[nH]1 (configuration not stated) | -6.31
56 | COCCn1ccc(NCc2scnc2C)n1 | -8.55
57 | CN1CCN(c2ccc(F)cc2NC(=O)NCCn2ccnc2)CC1 | -0.0867
58 | Cc1cc(N[C@H]2CCCN(Cc3ccccc3)C2)n2nc(C)cc2n1 | 1.66
59 | Cc1c(CN2C[C@@H](O)[C@H](Oc3cccc(F)c3)C2)cnn1C | -10.7
60 | COCCCN1CCCC1c1noc(C2CC2)n1 (configuration not stated) | 23.8
61 | CC(C)n1nc2c(cc1=O)CN(Cc1nc3ccccc3o1)CC2 | 10.1
62 | CC(C)CCN1CCN(C(=O)c2ccc(=O)[nH]n2)CC1 | -7.24
63 | CCN(CCNC(=O)Nc1nnc(C)s1)C(=O)OC(C)(C)C | -5.88

Row | SMILES | cytotoxicity at 70.5 h [%]
64 | COCCNc1cc(C(=O)N2CCOCC2)nc(C)n1 | 0.483
65 | O=C(c1cc2c([nH]c1=O)CCC2)N1CCCCC1c1cccc(F)c1 (configuration not stated) | 2.02
66 | CCOCC(O)CN1CCN(C(=O)C2CCC2)CC1 (configuration not stated) | -3.91
67 | CC(C)N[C@@H]1CO[C@H](CNC(=O)Nc2ccccc2)[C@H]1O | -2.59
68 | CCC[C@@H]1CN(C(=O)c2c(F)ccc(OC)c2F)C[C@H]1C(=O)O | -0.545
69 | CCc1nc(N)nc(N(C)Cc2nncn2CCOC)c1C | 11.8
70 | COc1ccc(CN2C[C@@H]3CN(Cc4cccnc4)CCO[C@@H]3C2)cc1 | -9.13
71 | Cc1cccc(CN2CCN(Cc3ccccc3)CC(O)C2)n1 (configuration not stated) | -12.1
72 | CCc1nc(CN2CCCN(C(=O)C(C)n3ccnc3)CC2)cs1 (configuration not stated) | -9
73 | CCCN1CC2(CCN(c3ccc(C(C)=O)cn3)CC2)CC1C(=O)O (configuration not stated) | -9.66
74 | CC(C)C[C@H](NC(=O)Nc1ccc(F)c(Cl)c1)C(=O)O | 6.99
75 | COc1cc(C)nc(N2CCN(C(=O)c3ccc(Cl)o3)CC2)n1 | -7.01
76 | O=C(CN(Cc1cccs1)C1CCS(=O)(=O)C1)NCC1CCCCC1 (configuration not stated) | -1.81
77 | O=C(NCCCn1nc2ccccn2c1=O)NCCC1CCC1 | -3.21
78 | O=C1[C@@H]2CN(C3CCOCC3)C[C@H]2CCN1CC1CC1 | -10.2
79 | Cc1cc(NC(=O)CNc2ccc(Br)cc2F)on1 | 2.93
80 | c1ccc(-c2cnc(CNC3CCc4ncnn4C3)o2)cc1 (configuration not stated) | 0.0931
81 | Cc1ccc(-c2nc(CCNC(=O)NCC(C)(C)C(N)=O)co2)cc1 | -0.0567
82 | COC(=O)C(C)(C)NC(=O)C1CC(=O)N(C2CC2)C1 (configuration not stated) | -6.5
